Source: patent publication US8722052B2, “Vaccinia virus protein A46 peptide and use thereof” (priority 2008, dated 2014)
“Also recorded” adds a separate entry of the source.

Key:
cell viability = test: MTT cell viability assay, more detailed investigation of screening hits; format: cell-based; conditions: cell type not stated
Procedure: Cell viability was measured by assessing mitochondrial function using an MTT (3-(4,5-Dimethylthiazol-2-yl)-2,5-diphenyltetrazolium bromide) assay. Cells were seeded into 96 well plates and treated with peptides and agonists as described above in relation to the Figs. Wells containing medium only served as a blank control. To terminate treatment of cells, medium was removed and the cells were washed once with PBS. 200 μl per well of 1 mg/ml MTT in PBS was added directly to the cells and the plates were incubated at 37° C. for 14-16 hrs in the dark. MTT was then removed and 200 μl per well of dimethyl sulphoxide (DMSO) was added and cells incubated for 20 min at 37° C. in the dark, prior to absorbance being read at 595 nm on a spectrophotometer.

IRF3 = test: LPS-induced IRF3 activation, IRF3-GAL4 reporter assay in HEK293_TLR4 cells; format: cell-based, human; conditions: peptide 1, 5 or 10 μM, 10 ng/ml LPS 6 h
Procedure: FIG. 26 is a bar chart showing the effect of A464 on LPS-induced IRF3 activation in HEK293 cells. HEK293_TLR4 cells were seeded in 96 well plate (1.5×10^5 cells/ml) 24 hours before transfection with the plasmid DNA. Cells were transfected with a plasmid encoding IRF3-GAL4, together with pFR-luciferase and TK-Renilla reporter gene plasmids. The total amount of plasmid DNA transfected into the cells was made up to 230 ng/well by adding pcDNA. A464 (SEQ ID NO. 20) was added to the cells at a concentration of 1, 5 or 10 μM the next day, and cells were stimulated with 10 ng/ml LPS 1 hour after treatment with the peptide for 6 hours. Cells were harvested and assayed for IRF3 activation by reporter gene assay. No peptides were added to the control wells (black bars). Data is representative of two experiments, each performed in triplicate and is expressed as mean fold induction±s.d. relative to control levels;
HEK293 cells were transfected using GeneJuice® a proprietary non-toxic transfection reagent. 200 μl/well cells at a density of 1×10^5 cells/ml were seeded the day before transfection. 0.8 μl of GeneJuice was mixed with 9.2 μl of serum-free DMEM (SFM) per transfection and incubated for 5 min at room temperature before adding the appropriate amount of the plasmid DNA. […] Luciferase activity was analysed using a luminometer.

TLR4 = test: LPS-induced TNFα in PMA-differentiated U937 cells, ELISA; format: cell-based, human; conditions: peptide 5 or 20 μM 1 h before 100 ng/ml LPS, 24 h
Procedure: FIGS. 3A and B are bar charts showing the effect of peptides derived from A46 on LPS-induced TNFα in human U937 cells. Cells were differentiated with 200 nM PMA and seeded in 96 well plates (2×10^5 cells/ml) 24 hours before treatment. A46 peptides were added to the cells at a concentration of 5 or 20 μM 1 hour before stimulating with 100 ng/ml LPS. Supernatants were collected 24 hours after stimulation and assayed for TNFα by ELISA. No peptides were added into the control wells (black bars). (A) peptides A461-A467 (SEQ ID NO. 17 to 23). (B) peptides A468-A4614 (SEQ ID NO. 24 to 30) (excluding A4612 SEQ ID NO. 28). Data is representative of at least two experiments each performed in triplicate and is expressed as mean±s.d;
Cytokine and chemokine production from cells or mouse serum was measured by ELISA using Duoset kits from R&D systems, according to the manufacturer's instructions.
LPS is a component of a cell wall of Gram-negative bacteria which is recognised by a homodimer of TLR4 and signals to NFκB via both a MyD88- and TRIF-dependent pathway (O'Neill and Bowie, 2007). In order to examine the effect of the peptides on TLR4-dependent gene induction in human cells, the human monocytic lymphoma cell line U937 was used. U937 cells were differentiated into macrophages by treatment with 200 nM PMA for 24 hours before any further manipulations. […]

TLR4, sequence (O00206 24-839): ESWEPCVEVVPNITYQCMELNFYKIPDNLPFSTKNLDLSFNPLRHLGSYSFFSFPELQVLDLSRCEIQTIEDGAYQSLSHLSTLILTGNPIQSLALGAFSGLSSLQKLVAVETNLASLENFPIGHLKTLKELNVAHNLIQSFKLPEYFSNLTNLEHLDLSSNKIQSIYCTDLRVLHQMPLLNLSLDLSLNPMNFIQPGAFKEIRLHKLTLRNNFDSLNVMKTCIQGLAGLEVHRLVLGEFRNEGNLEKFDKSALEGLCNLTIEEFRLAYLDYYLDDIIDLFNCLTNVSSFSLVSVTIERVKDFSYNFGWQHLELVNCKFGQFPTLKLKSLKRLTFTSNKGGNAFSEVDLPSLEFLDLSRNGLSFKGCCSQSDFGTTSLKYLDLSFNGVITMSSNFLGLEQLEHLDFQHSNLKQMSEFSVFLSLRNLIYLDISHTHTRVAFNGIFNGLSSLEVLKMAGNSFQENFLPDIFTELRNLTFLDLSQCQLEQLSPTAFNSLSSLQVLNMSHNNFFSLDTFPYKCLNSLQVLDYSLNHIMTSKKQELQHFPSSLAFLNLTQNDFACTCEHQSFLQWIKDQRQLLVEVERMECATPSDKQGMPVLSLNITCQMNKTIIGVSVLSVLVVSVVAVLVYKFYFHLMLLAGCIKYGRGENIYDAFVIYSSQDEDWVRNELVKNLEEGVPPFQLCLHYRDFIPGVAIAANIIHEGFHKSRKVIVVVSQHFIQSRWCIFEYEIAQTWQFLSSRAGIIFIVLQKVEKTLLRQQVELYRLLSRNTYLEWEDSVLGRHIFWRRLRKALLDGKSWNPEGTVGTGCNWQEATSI
TLR4, sequence (Q9Y6Y9 17-160 partner limits assumed): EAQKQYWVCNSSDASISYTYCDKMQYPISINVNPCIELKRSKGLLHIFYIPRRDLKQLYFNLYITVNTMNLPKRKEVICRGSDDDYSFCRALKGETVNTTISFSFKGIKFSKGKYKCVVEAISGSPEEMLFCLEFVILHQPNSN

KYSFKLILAEYRRRRRRRRR [Peptide A464] was tested, and the “cell viability (MTT assay)” value (cell viability) was “less toxic”, the “inhibition of LPS-induced IRF3 activation” value (IRF3) was “completely inhibited LPS-induced IRF3 activation at 1 μM” and the “inhibition of LPS (TLR4)-induced TNFα production” value (TLR4) was “potently inhibit TLR4-mediated TNFα production; also recorded: very potent inhibitory effect”.
